Source: patent US7807677B2, “HIV protease inhibitors” (Medivir AB, priority 2005, dated 2010)
Like-named read-outs stand apart in the source and are kept apart here.

How the values were obtained:
HIV-1 protease [1] = target: T1, HIV-1 protease (Human immunodeficiency virus type 1 group M subtype B, UniProt P04585); assay: biochemical
HIV-1IIIB (wild type) = assay: Antiviral activity in cell culture (XTT assay in MT-4 cells); type: cell-based; conditions: Human immunodeficiency virus 1, MT4, read-out: ED50 (μM)
Protocol: Compounds of the invention are assayed for HIV activity, for example using multiple determinations with XTT in MT-4 cells (Weislow et al, J Nat Cancer Inst 1989, vol 81 no 8, 577 et seq), preferably including determinations in the presence of 40-50% human serum to indicate the contribution of protein binding. In short the XTT assay uses human T cell line MT4 cells grown in RPMI 1640 medium supplemented with 10% fetal calf serum (or 40-50% human serum as appropriate), penicillin and streptomycin seeded into 96 well microplates (2·10^4 cells/well) infected with 10-20 TCID50 per well of HIV-1IIIB (wild type) or mutant virus, such as those bearing RT Ile 100, Cys 181 or Asn 103 mutations. Serially diluted test compounds are added to respective wells and the culture incubated at 37° C. in a CO2 enriched atmosphere and the viability of cells is determined at day five or six with XTT vital dye. Results are typically presented as ED50 μM.
Exp. Med. Biol., 1998, 436, 99-103. […] Agents Chemother., 1997, 41, 2383-2388.

[2] = cited from earlier work
[3] = test system: cytochrome P450 3A enzyme; conditions: inhibitor of the cytochrome P450 3A enzyme; cited from earlier work
HIV-1 protease [4] = target: T1, HIV-1 protease; conditions: Enzyme Inhibition

## CC(C)(C)[C@H](NS(C)(=O)=O)C(=O)NN(Cc1ccccc1)C[C@@](O)(Cc1ccccc1)C(=O)N[C@H]1c2ccccc2C[C@H]1O [Compound 17, (2S)-2-Benzyl-3-[N-benzyl-N′-((2S)-2-methanesulfonylamino-3,3-dimethyl-butyryl)-hydrazino]-2-hydroxy-N-((1S,2R)-2-hydroxy-indan-1-yl)-propionamide]
HIV-1 protease [1]
  Ki: 50 to 100 nM

## CC(C)(C)[C@H](NC(=O)NCc1ccccc1)C(=O)NN(Cc1ccccc1)C[C@@](O)(Cc1ccccc1)C(=O)N[C@H]1c2ccccc2C[C@H]1O [Compound 18, (2S)-2-Benzyl-3-{N-Benzyl-N′-[(2S)-2-(3-benzyl-ureido)-3,3-dimethyl-butyryl]-hydrazino}-2-hydroxy-N-((1S,2R)-2-hydroxy-indan-1-yl)-propionamide]
HIV-1 protease [1]
  Ki: 11 to 50 nM

## COC(=O)N[C@H](C(=O)NN(Cc1ccccc1)C[C@@](O)(Cc1ccccc1)C(=O)N[C@H]1c2ccccc2C[C@H]1O)C(C)C [Compound 14, {(1S)-1-[N′-Benzyl-N′-((2S)-2-hydroxy-2-((1S,2R)-2-hydroxy-indan-1-ylcarbamoyl)-3-phenyl-propyl)-hydrazinocarbonyl]-2-methyl-propyl}-carbamic acid methyl ester]
HIV-1 protease [1]
  Ki: < 10 nM
HIV-1IIIB (wild type)
  EC50: 2 to 10 µM

## Cc1c(O)cccc1C(=O)N[C@@H](CSc1ccccc1)[C@H](O)CN1C[C@H]2CCCC[C@H]2C[C@H]1C(=O)NC(C)(C)C [nelfinavir]
[2]; saquinavir dosed at 1200 mg thrice-daily (TID), at steady-state
  increase the exposure of saquinavir: 392%

## CC(C)[C@H](NC(=O)OCc1ccccc1)C(=O)NN(Cc1ccccc1)C[C@@](O)(Cc1ccccc1)C(=O)N[C@H]1c2ccccc2C[C@H]1O [Compound 11, {(1S)-1-[N′-Benzyl-N′-((2S)-2-hydroxy-2-((1S,2R)-2-hydroxy-indan-1-ylcarbamoyl)-3-phenyl-propyl)-hydrazinocarbonyl]-2-methyl-propyl}-carbamic acid benzyl ester]
HIV-1 protease [1]
  Ki: 11 to 50 nM

## COC(=O)N[C@H](C(=O)N[C@@H](Cc1ccccc1)[C@@H](O)CN(Cc1ccc(-c2ccccn2)cc1)NC(=O)[C@@H](NC(=O)OC)C(C)(C)C)C(C)(C)C [Atazanavir, atazanavir]
[3]
  Ki: 2400 nM
[2]; due to combination with atazanavir, multiple-dose pharmacology study
  increase in exposure (saquinavir): greater than 3 fold

## COC(=O)N[C@H](C(=O)NN(Cc1ccc(Br)cc1)C[C@@](O)(Cc1ccccc1)C(=O)N[C@H]1c2ccccc2C[C@H]1O)C(C)(C)C [Compound 19, {(1S)-1-[N′-(4-Bromo-benzyl)-N′-((2S)-2-hydroxy-2-((1S,2R)-2-hydroxy-indan-1-ylcarbamoyl)-3-phenyl-propyl)-hydrazinocarbonyl]-2,2-dimethyl-propyl}-carbamic acid methyl ester]
HIV-1IIIB (wild type)
  EC50: < 2 µM

## {(1S)-1-[N′-(4-Bromo-benzyl)-N′-((2S)-2-hydroxy-2-((1S,2R)-2-hydroxy-indan-1-ylcarbamoyl)-3-phenyl-propyl)-hydrazinocarbonyl]-2-methyl-propyl}-carbamic acid benzyl ester [Compound 20]
HIV-1 protease [4]
  Ki: 11 to 50 nM

## CC(C)(C)[C@H](NC(=O)OCc1ccccc1)C(=O)NN(Cc1ccccc1)C[C@@](O)(Cc1ccccc1)C(=O)N[C@H]1c2ccccc2C[C@H]1O [Compound 13, {(1S)-1-[N′-Benzyl-N′-((2S)-2-hydroxy-2-((1S,2R)-2-hydroxy-indan-1-ylcarbamoyl)-3-phenyl-propyl)-hydrazinocarbonyl]-2,2-dimethyl-propyl}-carbamic acid benzyl ester]
HIV-1 protease [1]
  Ki: 11 to 50 nM

## COC(=O)N[C@H](C(=O)NN(Cc1ccccc1)C[C@@](O)(Cc1ccccc1)C(=O)N[C@H]1c2ccccc2C[C@H]1O)C(C)(C)C [Compound 15, {(1S)-1-[N′-Benzyl-N′-((2S)-2-hydroxy-2-((1S,2R)-2-hydroxy-indan-1-ylcarbamoyl)-3-phenyl-propyl)-hydrazinocarbonyl]-2,2-dimethyl-propyl}-carbamic acid methyl ester]
HIV-1 protease [1]
  Ki: < 10 nM
HIV-1IIIB (wild type)
  EC50: 2 to 10 µM
